Assay results from ChEMBL document CHEMBL1201862, “PubChem BioAssay data set” (2004).
Active and inactive are the calls of the source.

Assays:
[1] = biological target: T1, Carboxy-terminal domain RNA polymerase II polypeptide A small phosphatase 1 (Homo sapiens, UniProt Q9GZU7); assay: CTDSP1 inhibitors, concentration-response, biochemical, absorbance readout, ultra-high-throughput screen actives (AID 540297); assay type: functional
T1 sequence (Q9GZU7 whole entry): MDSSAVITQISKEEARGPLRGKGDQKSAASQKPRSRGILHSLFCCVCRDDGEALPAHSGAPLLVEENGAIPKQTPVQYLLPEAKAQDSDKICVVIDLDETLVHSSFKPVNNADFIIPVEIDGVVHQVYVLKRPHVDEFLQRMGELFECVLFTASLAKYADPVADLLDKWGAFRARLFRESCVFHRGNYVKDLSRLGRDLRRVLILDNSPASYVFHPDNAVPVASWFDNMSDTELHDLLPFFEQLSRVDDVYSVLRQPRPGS

Paired box protein Pax-8 = Paired box protein Pax-8 (Homo sapiens, UniProt Q06710); assay: PAX8 transcriptional activity inhibition in RMG-I – RMG-I cells, luciferase, cherry-pick, dose response (AID 687027); assay type: functional, cell-based;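 further: luciferase reporter driven by Pax8 target thyroperoxidase promoter measured by SteadyGlo luminescence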
[2] = OVCAR8 cell viability loss – plate reader, dry powder samples, PAX8 project, dose response (AID 743197); assay type: functional, cell-based; conditions: OVCAR-8
[3] = OVCAR-3 cell viability loss – plate reader, dry powder samples, PAX8 inhibitor project, dose response (AID 743044); assay type: functional, cell-based
[4] = viability loss in THP-1 monocytes – THP-1 cells, cytotoxicity control for Vif-APOBEC3G degradation inhibitor project, dose response (AID 1117359); assay type: functional; conditions: THP-1
[5] = blockers of bursicon-stimulated LGR2 cAMP reporter – cell-based, HEK293, CRE-luciferase reporter, cherry pick, set 2, dose response (AID 743343); assay type: functional;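 further: transfected cells were stimulated with diluted bursicon conditioned medium after compound addition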
[6] = biological target: T2, High affinity choline transporter 1 (Homo sapiens, UniProt Q9GZV3); assay: human choline transporter blockers, potency – cell-based, 5-point CRC, membrane potential dye, dose response (AID 504840); assay type: functional
T2 sequence (Q9GZV3 whole entry): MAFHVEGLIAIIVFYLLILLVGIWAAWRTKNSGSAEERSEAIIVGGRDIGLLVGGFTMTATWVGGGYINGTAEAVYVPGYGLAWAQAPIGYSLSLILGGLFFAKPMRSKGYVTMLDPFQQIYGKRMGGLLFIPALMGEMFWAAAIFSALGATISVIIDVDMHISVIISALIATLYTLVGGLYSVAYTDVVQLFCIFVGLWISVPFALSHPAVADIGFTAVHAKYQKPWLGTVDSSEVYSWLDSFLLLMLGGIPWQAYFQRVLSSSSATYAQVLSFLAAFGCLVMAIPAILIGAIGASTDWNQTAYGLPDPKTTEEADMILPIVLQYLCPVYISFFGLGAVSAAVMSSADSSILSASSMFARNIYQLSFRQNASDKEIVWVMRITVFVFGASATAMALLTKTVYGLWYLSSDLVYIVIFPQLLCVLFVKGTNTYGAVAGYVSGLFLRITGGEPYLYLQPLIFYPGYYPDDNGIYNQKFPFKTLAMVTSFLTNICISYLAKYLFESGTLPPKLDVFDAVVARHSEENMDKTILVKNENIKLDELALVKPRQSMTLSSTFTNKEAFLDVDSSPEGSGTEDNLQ

[7] = biological target: T3, Short transient receptor potential channel 4 (Mus musculus, UniProt Q9QUQ5); assay: calcium entry via TRPC4 opening agents – cell-based, HEK293 TRPC4/mu-opioid, Fluo-4 calcium, dose response (AID 434937); assay type: functional
T3 sequence (Q9QUQ5 whole entry): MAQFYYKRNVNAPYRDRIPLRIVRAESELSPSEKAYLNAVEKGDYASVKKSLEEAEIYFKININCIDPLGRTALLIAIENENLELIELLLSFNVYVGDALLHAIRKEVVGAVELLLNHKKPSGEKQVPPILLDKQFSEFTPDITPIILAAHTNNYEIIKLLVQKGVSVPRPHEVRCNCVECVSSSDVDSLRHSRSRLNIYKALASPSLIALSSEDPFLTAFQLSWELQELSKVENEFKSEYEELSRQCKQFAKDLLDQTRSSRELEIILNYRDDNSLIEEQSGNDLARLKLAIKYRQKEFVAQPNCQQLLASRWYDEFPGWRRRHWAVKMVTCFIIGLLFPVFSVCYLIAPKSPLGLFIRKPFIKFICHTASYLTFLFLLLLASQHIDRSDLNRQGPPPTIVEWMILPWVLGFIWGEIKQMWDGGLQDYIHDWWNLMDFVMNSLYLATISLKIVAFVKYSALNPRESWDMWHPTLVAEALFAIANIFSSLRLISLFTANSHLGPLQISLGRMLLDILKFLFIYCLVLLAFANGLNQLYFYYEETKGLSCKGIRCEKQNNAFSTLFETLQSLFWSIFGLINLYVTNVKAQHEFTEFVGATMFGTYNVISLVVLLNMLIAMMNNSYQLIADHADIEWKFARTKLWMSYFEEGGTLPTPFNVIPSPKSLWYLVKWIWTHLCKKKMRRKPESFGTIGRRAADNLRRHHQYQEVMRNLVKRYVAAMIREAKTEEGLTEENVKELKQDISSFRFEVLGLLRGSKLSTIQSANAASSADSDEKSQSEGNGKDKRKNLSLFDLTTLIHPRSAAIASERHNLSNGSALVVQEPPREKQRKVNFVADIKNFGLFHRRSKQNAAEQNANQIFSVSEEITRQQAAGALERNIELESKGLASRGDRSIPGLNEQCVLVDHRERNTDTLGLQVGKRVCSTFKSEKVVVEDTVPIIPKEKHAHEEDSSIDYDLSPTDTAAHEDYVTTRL

Streptococcus = assay: GAS UMAA2166 growth inhibition – luminescence, BacTiterGlo, counter-screen for streptokinase expression inhibitor project, dose response (AID 1915); assay type: functional, organism-based;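 further: potency for reduction of bacterial viability or growth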
[8] = tested on: Streptococcus sp. 'group A'; assay: Streptococcus pyogenes SK(-)GAS viability under kanamycin – luminescence, BacTiterGlo, confirmation, counter-screen for streptokinase expression inhibitor project, dose response (AID 1900); assay type: functional, organism-based
[9] = THP-1 cell cytotoxicity, dose response, cytotoxicity control for non-replicating M. tuberculosis project (AID 489025); assay type: functional
cells [10] = assay type: functional, cell-based
cells [11] = assay type: functional
[12] = HepG2 cell cytotoxicity, dose response, cytotoxicity control for non-replicating M. tuberculosis project (AID 489018); assay type: functional; conditions: Mycobacterium tuberculosis
INS1 = assay: INS-1E survival protection against cytokine death – cell-based, luminescence, retest, dose response (AID 449756); assay type: functional; conditions: Rattus norvegicus;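 further: cell death triggered by IL-1 beta plus TNF-alpha plus IFN-gamma mixture; protective hits raise ATP signal compared with cytokine alone wells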
cells [13] = assay type: functional, cell-based; remark: listed apart in the source
[14] = Vero E6 cell cytotoxicity, dose response, cytotoxicity control for non-replicating M. tuberculosis project, secondary assay (AID 492998); assay type: functional, VeroE6; conditions: Vero C1008
Cytochrome P450 3A4 = Cytochrome P450 3A4 (Homo sapiens, UniProt P08684); conditions: Potency;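 further: confirmatory qHTS run detecting inhibitors and substrates of CYP3A4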
[15] = biological target: Induced myeloid leukemia cell differentiation protein Mcl-1 (Homo sapiens, UniProt Q07820); assay type: functional
Induced myeloid leukemia cell differentiation protein Mcl-1, sequence (Q07820 whole entry): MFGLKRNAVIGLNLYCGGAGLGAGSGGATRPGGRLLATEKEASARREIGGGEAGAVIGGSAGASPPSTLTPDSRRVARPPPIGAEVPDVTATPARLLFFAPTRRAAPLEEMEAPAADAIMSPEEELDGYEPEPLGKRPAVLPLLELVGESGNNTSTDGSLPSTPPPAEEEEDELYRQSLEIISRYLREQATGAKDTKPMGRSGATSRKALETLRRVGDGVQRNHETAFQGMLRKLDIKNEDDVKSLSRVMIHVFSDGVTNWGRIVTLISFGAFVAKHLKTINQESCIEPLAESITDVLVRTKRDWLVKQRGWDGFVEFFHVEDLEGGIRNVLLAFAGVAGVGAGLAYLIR

Paired box protein Pax-8, sequence (Q06710 whole entry): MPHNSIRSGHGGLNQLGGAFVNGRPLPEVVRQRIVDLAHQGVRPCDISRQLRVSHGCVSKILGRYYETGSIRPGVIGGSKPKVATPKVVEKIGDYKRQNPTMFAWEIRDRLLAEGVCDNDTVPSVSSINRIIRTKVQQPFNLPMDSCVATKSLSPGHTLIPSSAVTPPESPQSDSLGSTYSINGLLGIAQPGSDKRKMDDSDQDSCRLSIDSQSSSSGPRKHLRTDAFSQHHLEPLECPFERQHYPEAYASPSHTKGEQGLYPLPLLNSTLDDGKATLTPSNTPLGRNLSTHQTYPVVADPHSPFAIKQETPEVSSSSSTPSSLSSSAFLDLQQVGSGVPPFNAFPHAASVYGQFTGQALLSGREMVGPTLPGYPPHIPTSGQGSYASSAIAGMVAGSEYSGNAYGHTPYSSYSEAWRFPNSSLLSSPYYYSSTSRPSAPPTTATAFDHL
Cytochrome P450 3A4, sequence (P08684 whole entry): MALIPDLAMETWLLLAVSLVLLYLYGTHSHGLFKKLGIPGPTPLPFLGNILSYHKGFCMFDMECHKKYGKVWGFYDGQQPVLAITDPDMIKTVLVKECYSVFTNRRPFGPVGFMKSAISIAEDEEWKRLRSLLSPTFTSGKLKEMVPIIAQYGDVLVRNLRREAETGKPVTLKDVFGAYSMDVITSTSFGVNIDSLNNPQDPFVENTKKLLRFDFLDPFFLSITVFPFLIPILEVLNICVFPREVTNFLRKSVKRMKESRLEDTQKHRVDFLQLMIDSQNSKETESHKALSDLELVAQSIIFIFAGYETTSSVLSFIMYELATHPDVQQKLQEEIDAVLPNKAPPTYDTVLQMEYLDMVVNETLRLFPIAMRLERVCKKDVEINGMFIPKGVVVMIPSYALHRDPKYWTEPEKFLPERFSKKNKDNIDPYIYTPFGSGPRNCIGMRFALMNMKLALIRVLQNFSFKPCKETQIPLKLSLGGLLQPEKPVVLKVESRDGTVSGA

SMILES: Cn1c(SCC(=O)Nc2nncs2)nnc1C1CC1
- IC50 [1]: 4.69 µM (active)

SMILES: CCCN1[C@H](C(=O)N2CCOCC2)[C@@H](CO)[C@@H]2Cn3c(ccc(/C=C/c4ccccc4)c3=O)[C@@H]21
- AC50 (Paired box protein Pax-8): 48.2 µM (active)
- AC50 [2]: > 70 µM (inactive)

SMILES: C[C@@H]1CN([C@H](C)CO)S(=O)(=O)c2ccc(-c3ccc(C#N)cc3)cc2O[C@@H]1CN(C)Cc1cccc(F)c1
- AC50 (Paired box protein Pax-8): 3.4 µM (active)
- AC50 [3]: 29.1 µM (active)
- AC50 [2]: 25.8 µM (active)

SMILES: CCCC[C@@H]1CN=C(S)N1CCc1cccc2ccccc12
- CC50 [4]: > 40 µM (active)

SMILES: COc1ccc(NS(=O)(=O)c2cccc(C(=O)N/N=C/c3c(F)c(F)c(F)c(F)c3F)c2)cc1
- IC50 [1]: 10.7 µM (active)

SMILES: O=S1(=O)CCOC[C@H](CC2CCCCC2)N1Cc1ccccc1F
- AC50 [5]: 53.7 µM (active)

SMILES: COc1ccccc1C(=O)NNC(=S)NC(=O)c1sc2ccccc2c1Cl
- IC50 [6]: 14.5 µM (active)
- EC50 [7]: 5.31 µM (active)
- EC50 (Streptococcus): 878 nM (active)
- EC50 [8]: 72 nM (active)

SMILES: Oc1ccccc1/C=N/Nc1ncc(Br)cn1
- CC50 [9]: 6.62 µM (active)
- EC50 (cells [10]): 7.46 µM (active)
- IC50 (cells [11]): 7.9 µM (active)
- CC50 [12]: > 20 µM (active)
- AC50 (INS1): 2.77 µM (active)
- EC50 (cells [13]): 23 µM (active)
- CC50 [14]: 3.26 µM (active)

SMILES: CCCOc1ccc(C(CC(=O)O)NC(=O)c2sc3ccccc3c2Cl)cc1 (stereo unspecified)
- IC50 [6]: 7.59 µM (active)

SMILES: Nc1cc(C(=O)OCC(=O)c2ccc(CC(=O)N3CCOCC3)s2)ccc1Cl
- IC50 [1]: 5.84 µM (active)

SMILES: COc1c2c(c(CC=C(C)C)c3oc(=O)c(-c4ccc(O)cc4)c(O)c13)OC(C)(C)C=C2 [LONCHOCARPIC ACID]
- AC50 (Cytochrome P450 3A4): 12.6 µM (inconclusive)

SMILES: Cc1ccc(-n2cc(CN3CCN(Cc4nccn4C)CC3)c(-c3cccc(C)c3)n2)cc1
- IC50 [6]: 10.5 µM (active)

SMILES: Cc1ccc(NC(=O)CN2C(=O)N/C(=C/c3cc(C)n(-c4ccc(C(=O)O)cc4)c3C)C2=O)cc1
- IC50 [1]: 7.93 µM (active)
- IC50 [15]: 4.55 µM (active)
